# Assay results: PubChem BioAssay AID686917 (Sanford-Burnham Center for Chemical Genomics, 2013)
# “And” between values parts separate entries of the source, which are not always exact repeats. Equal values may be shown once. The source made the active and inactive calls.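 The calls were made as follows: active = IC50 at or below 100 µM in the confirmatory dose response; inactive = the rest.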
# Biological target: 26S proteasome non-ATPase regulatory subunit 14 (Homo sapiens) (UniProt O00487)
# Test: inhibition of proteasome Rpn11 deubiquitination – biochemical, fluorescence polarization, human 26S proteasome, uHTS hits, dose response (AID 686917)
# Settings: purified human 26S proteasome, Ub4-pepOG fluorescence polarization
# Sequence of 26S proteasome non-ATPase regulatory subunit 14 (Homo sapiens) (O00487 whole entry, looked up): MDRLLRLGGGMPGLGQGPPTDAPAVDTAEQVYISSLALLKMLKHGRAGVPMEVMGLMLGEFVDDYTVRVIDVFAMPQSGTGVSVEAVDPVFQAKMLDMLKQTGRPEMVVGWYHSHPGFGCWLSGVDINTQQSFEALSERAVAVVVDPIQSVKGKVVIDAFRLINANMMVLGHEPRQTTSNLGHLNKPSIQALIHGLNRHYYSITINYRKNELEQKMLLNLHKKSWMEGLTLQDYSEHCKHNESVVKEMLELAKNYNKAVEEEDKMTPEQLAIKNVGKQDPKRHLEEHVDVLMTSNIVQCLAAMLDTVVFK
row,SMILES,IC50
1,N#Cc1ccc(C(=O)Sc2cccc3cccnc23)cc1,> 99 µM (inactive)
2,COC(=O)[C@H](CC(C)C)NC(=O)c1cnc2c(SSc3cccc4cc(C(=O)N[C@@H](CC(C)C)C(=O)OC)cnc34)cccc2c1,5.32 µM
3,COC(=O)[C@H](C)N(C)C(=O)c1cnc2c(SSc3cccc4cc(C(=O)N(C)[C@@H](C)C(=O)OC)cnc34)cccc2c1,4.31 µM
4,COC(=O)[C@H](C)NC(=O)c1ccnc2c(SSc3cccc4c(C(=O)N[C@@H](C)C(=O)OC)ccnc34)cccc12,4.36 µM
5,O=C(O)[C@@H]1CCCN1C(=O)c1cnc2c(SSc3cccc4cc(C(=O)N5CCC[C@H]5C(=O)O)cnc34)cccc2c1,1.7 µM
6,COc1ccc(C(=O)Sc2cccc3cccnc23)cc1F,3.54 µM
7,O=C(Sc1cccc2cccnc12)c1ccccc1I,2.18 µM
8,COC(=O)c1cnc2c(SSc3cccc4cc(C(=O)OC)cnc34)cccc2c1,3.4 µM
9,O=C(Sc1cccc2cccnc12)c1ccc(F)cc1,5.35 µM
10,COc1ccc(C(=O)Sc2cccc3cccnc23)cc1,4.37 µM
11,O=C(Sc1cccc2cccnc12)c1ccccc1Cl,5.81 µM
12,COc1ccc(C(=O)Sc2cccc3cccnc23)cc1OC,9.19 µM
13,Cc1ccc(C(=O)Sc2cccc3cccnc23)cc1,14.6 µM
14,CC[C@@H](C)[C@H](NC(=O)c1cnc2c(SSc3cccc4cc(C(=O)N[C@H](C(=O)O)[C@H](C)CC)cnc34)cccc2c1)C(=O)O,1.8 µM
15,O=C(Sc1cccc2cccnc12)c1ccccc1F,> 99 µM (inactive)
16,CC[C@@H](C)[C@H](NC(=O)c1cnc2c(SSc3cccc4cc(C(=O)N[C@H](C(=O)OC)[C@@H](C)CC)cnc34)cccc2c1)C(=O)OC,1.77 µM
17,O=C(Sc1cccc2cccnc12)c1ccc(C(F)(F)F)cc1,3.73 µM
18,CCOc1ccccc1C(=O)Sc1cccc2cccnc12,3.7 µM and 14.4 µM
19,O=C(Sc1cccc2cccnc12)c1ccccc1[N+](=O)[O-],5.27 µM
20,CC(C)(C)OC(=O)CCNC(=O)c1cnc2c(SSc3cccc4cc(C(=O)NCCC(=O)OC(C)(C)C)cnc34)cccc2c1,4.9 µM
21,COC(=O)[C@H](CO)NC(=O)c1cnc2c(SSc3cccc4cc(C(=O)N[C@@H](CO)C(=O)OC)cnc34)cccc2c1,4.86 µM
22,O=C(Sc1cccc2cccnc12)C1CCCCC1,0.663 µM
23,COC(=O)[C@H](C)NC(=O)c1cnc2c(SSc3cccc4cc(C(=O)N[C@@H](C)C(=O)OC)cnc34)cccc2c1,5.01 µM
24,COc1ccccc1C(=O)Sc1cccc2cccnc12,4.59 µM and 2.1 µM

row,SMILES,IC50
1,O=C(Sc1cccc2cccnc12)c1ccc(F)cc1F,9.67 µM
2,O=C(Sc1cccc2cccnc12)c1ccccc1Br,3.83 µM
3,O=C(Sc1cccc2cccnc12)c1ccc(F)c(F)c1,3.69 µM
4,CC(C)C[C@H](NC(=O)c1cnc2c(SSc3cccc4cc(C(=O)N[C@@H](CC(C)C)C(=O)O)cnc34)cccc2c1)C(=O)O,2.54 µM
5,O=C(O)c1cnc2c(SSc3cccc4cc(C(=O)O)cnc34)cccc2c1,1.26 µM
6,O=C(Sc1cccc2cccnc12)c1ccc2c(c1)OCO2,14 µM
7,Cc1ccccc1C(=O)Sc1cccc2cccnc12,11 µM
8,N#Cc1cccc(C(=O)Sc2cccc3cccnc23)c1,15.8 µM
9,COC(=O)[C@@H]1CCCN1C(=O)c1cnc2c(SSc3cccc4cc(C(=O)N5CCC[C@H]5C(=O)OC)cnc34)cccc2c1,3.42 µM
10,CCCc1ccc(C(=O)Sc2cccc3cccnc23)cc1,2.66 µM
11,O=C(Sc1cccc2cccnc12)c1ccccc1,5.21 µM
12,C[C@@H](C(=O)O)N(C)C(=O)c1cnc2c(SSc3cccc4cc(C(=O)N(C)[C@@H](C)C(=O)O)cnc34)cccc2c1,5.84 µM
13,Cc1cccc(C(=O)Sc2cccc3cccnc23)c1,1.27 µM
14,COC(=O)[C@@H](NC(=O)c1cnc2c(SSc3cccc4cc(C(=O)N[C@H](C(=O)OC)C(C)C)cnc34)cccc2c1)C(C)C,4 µM
15,O=C(Sc1cccc2cccnc12)c1cccc2ccccc12,3.97 µM
16,O=C(Sc1cccc2cccnc12)c1c(Cl)cccc1Cl,1.48 µM
17,O=C(Sc1cccc2cccnc12)c1ccc([N+](=O)[O-])cc1,10 µM
18,O=C(Sc1cccc2cccnc12)c1cccc(Cl)c1,1.18 µM
19,CC(C)Cc1ccc(C(=O)Sc2cccc3cccnc23)cc1,2.46 µM
20,O=C(Sc1cccc2cccnc12)c1ccccc1OC(F)(F)F,4.12 µM
21,COc1cccc(C(=O)Sc2cccc3cccnc23)c1,1.49 µM
22,COC(=O)C[C@H](NC(=O)c1cnc2c(SSc3cccc4cc(C(=O)N[C@@H](CC(=O)OC)C(=O)OC)cnc34)cccc2c1)C(=O)OC,3.43 µM
23,O=C(Sc1cccc2cccnc12)c1cccc(C(F)(F)F)c1,8.43 µM
